Assay results from patent US9284280B2, “Use of form-I crystal of 2-{4-[N-(5,6-diphenylpyrazin-2-yl)-N-isopropylamino]butyloxy}-N-(methylsulfonyl)acetamide” (NIPPON SHINYAKU CO., LTD., priority 2009, dated 2016).

Tests used:
PGI2 = PGI2 (Homo sapiens, UniProt P43119); conditions: background statement, see WO 2002/088084; cited from earlier work
[1] = Measurement of particle size distribution of the crystals (HORIBA LA-910) and observation with electron scanning microscope; type: physicochemical; conditions: for D10: Cumulative undersize particle diameter at 10% of volumetric ratio / D50: Cumulative undersize particle diameter at 50% of volumetric ratio / D90: Cumulative undersize particle diameter at 90% of volumetric ratio: crystals dispersed with ultrasonic wave in saturated solution of compound A in 0.1 v/v % Polysorbate 80 aqueous solution
Protocol: After a dispersant (10 mL) was added to the crystals of the invention (20 mg) followed by shaking up, the crystals of the invention were dispersed with ultrasonic wave. The particle size distributions of the crystals of the invention were measured by using HORIBA LA-910. The dispersant used is a filtered saturated solution of compound A in 0.1 v/v % Polysorbate 80 aqueous solution. D10: Cumulative undersize particle diameter at 10% of volumetric ratio [μm] D50: Cumulative undersize particle diameter at 50% of volumetric ratio [μm] D90: Cumulative undersize particle diameter at 90% of volumetric ratio [μm] (2) Observation of the Crystals of the Invention with Electron Scanning Microscope The crystals were observed through an electron scanning microscope (HITACHI HIGH TECHNOLOGIES TM-1000 Miniscope).

Chain of PGI2 (P43119 whole entry): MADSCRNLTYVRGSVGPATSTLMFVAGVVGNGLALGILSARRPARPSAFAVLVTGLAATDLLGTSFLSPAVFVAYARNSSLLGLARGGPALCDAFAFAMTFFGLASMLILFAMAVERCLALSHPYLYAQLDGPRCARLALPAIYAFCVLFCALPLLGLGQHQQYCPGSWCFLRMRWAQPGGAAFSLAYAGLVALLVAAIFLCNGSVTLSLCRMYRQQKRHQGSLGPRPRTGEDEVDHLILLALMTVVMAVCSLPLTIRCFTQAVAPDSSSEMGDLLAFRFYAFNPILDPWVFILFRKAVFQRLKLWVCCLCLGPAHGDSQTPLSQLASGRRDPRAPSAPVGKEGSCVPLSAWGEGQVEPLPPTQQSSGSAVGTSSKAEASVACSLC

CC(C)N(CCCCOCC(=O)NS(C)(=O)=O)c1cnc(-c2ccccc2)c(-c2ccccc2)n1 [Compound A, 2-{4-[N-(5,6-diphenylpyrazin-2-yl)-N-isopropylamino]butyloxy}-N-(methylsulfonyl)acetamide]
PGI2 agonistic effect (PGI2): excellent PGI2 agonistic effect

CC(C)N(CCCCOCC(=O)NS(C)(=O)=O)c1cnc(-c2ccccc2)c(-c2ccccc2)n1 [Form-I Crystal of the Invention, 2-{4-[N-(5,6-diphenylpyrazin-2-yl)-N-isopropylamino]butyloxy}-N-(methylsulfonyl)acetamide]
particle size compared between crystal forms ([1]; conclusion from particle size distribution and electron scanning micrographs): larger than those of Form-II and Form-III crystals
D10: Cumulative undersize particle diameter at 10% of volumetric ratio [1]: 5.6 μm
D50: Cumulative undersize particle diameter at 50% of volumetric ratio [1]: 12.8 μm
D90: Cumulative undersize particle diameter at 90% of volumetric ratio [1]: 25.8 μm

CC(C)N(CCCCOCC(=O)NS(C)(=O)=O)c1cnc(-c2ccccc2)c(-c2ccccc2)n1 [Form-II Crystal of the Invention, 2-{4-[N-(5,6-diphenylpyrazin-2-yl)-N-isopropylamino]butyloxy}-N-(methylsulfonyl)acetamide]
D10: Cumulative undersize particle diameter at 10% of volumetric ratio [1]: 5.2 μm
D50: Cumulative undersize particle diameter at 50% of volumetric ratio [1]: 11.3 μm
D90: Cumulative undersize particle diameter at 90% of volumetric ratio [1]: 22.0 μm

CC(C)N(CCCCOCC(=O)NS(C)(=O)=O)c1cnc(-c2ccccc2)c(-c2ccccc2)n1 [Form-III Crystal of the Invention, 2-{4-[N-(5,6-diphenylpyrazin-2-yl)-N-isopropylamino]butyloxy}-N-(methylsulfonyl)acetamide]
D10: Cumulative undersize particle diameter at 10% of volumetric ratio [1]: 4.3 μm
D50: Cumulative undersize particle diameter at 50% of volumetric ratio [1]: 8.0 μm
D90: Cumulative undersize particle diameter at 90% of volumetric ratio [1]: 14.4 μm
